Data taken from US20250205259A1, “CLASS OF 7-((FIVE-MEMBERED HETEROCYCLIC)METHYL)-8-CARBOXYLIC ACID-BENZO CYCLIC BORATE DERIVATIVES AND USES THEREOF” (priority 2022, published 2025).
Like-named read-outs stand apart in the source and are kept apart here.

Tests used:
Format in all cases: biochemical
OXA-48 = OXA-48 (Klebsiella pneumoniae, UniProt Q6XEC0); test: Inhibitory activity on SBL, fluorescent substrate FC-5; details: for IC50: read-out: Inhibitory activity on SBL OXA-48 (IC50 class)
NDM-1 = NDM-1 (Klebsiella pneumoniae, UniProt C7C422); test: Inhibitory activity on MBL, fluorescent substrate FC-5
Sequence of NDM-1 (C7C422 29-270 limits assumed): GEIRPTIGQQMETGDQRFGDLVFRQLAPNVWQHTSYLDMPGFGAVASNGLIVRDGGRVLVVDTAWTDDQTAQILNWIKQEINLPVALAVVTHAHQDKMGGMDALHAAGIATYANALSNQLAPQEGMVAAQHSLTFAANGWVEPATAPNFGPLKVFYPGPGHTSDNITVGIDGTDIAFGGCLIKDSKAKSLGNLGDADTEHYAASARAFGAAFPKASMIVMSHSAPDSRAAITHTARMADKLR

TEM-1 = TEM-1 (Escherichia coli, UniProt P62593); test: Inhibitory activity on SBL, fluorescent substrate FC-5; details: for IC50: read-out: Inhibitory activity on SBL TEM-1 (IC50 class)
Sequence of TEM-1 (P62593 24-286 limits assumed): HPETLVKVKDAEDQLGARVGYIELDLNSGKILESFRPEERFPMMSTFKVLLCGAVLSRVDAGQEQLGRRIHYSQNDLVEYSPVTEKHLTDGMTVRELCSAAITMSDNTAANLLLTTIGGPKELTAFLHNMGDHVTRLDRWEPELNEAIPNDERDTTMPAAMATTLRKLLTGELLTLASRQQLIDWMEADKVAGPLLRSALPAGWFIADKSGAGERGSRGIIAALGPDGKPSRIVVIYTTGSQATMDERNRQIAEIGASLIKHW

NDM-5 = NDM-5 (Klebsiella pneumoniae, UniProt C7C422, M154L/V88L); test: Inhibitory activity on MBL, fluorescent substrate FC-5
Sequence of NDM-5 (C7C422 29-270 V88L/M154L): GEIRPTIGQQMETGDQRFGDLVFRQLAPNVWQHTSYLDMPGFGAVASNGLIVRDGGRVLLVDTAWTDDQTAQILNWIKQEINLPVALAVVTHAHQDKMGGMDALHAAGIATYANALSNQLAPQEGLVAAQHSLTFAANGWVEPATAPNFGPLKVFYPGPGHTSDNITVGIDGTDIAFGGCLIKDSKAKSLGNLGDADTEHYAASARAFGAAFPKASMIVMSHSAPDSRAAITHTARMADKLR

VIM-1 = VIM-1 (Pseudomonas aeruginosa, UniProt A0A0F7KYQ8); test: as above
IMP-1 = IMP-1 (Serratia marcescens, UniProt P52699); test: as above
Sequence of IMP-1 (P52699 19-246 limits assumed): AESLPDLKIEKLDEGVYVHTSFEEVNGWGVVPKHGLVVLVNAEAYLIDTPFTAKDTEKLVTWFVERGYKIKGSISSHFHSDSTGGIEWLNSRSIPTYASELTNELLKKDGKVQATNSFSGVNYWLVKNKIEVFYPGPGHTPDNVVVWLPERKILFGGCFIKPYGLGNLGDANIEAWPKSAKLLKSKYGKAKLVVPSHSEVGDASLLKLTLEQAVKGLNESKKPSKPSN

SHV-12 = target: T1, SHV-12 (UniProt P0AD64, L31Q/G234S/E235K, species not given); test: Inhibitory activity on SBL, fluorescent substrate FC-5; details: for IC50: read-out: Inhibitory activity on SBL SHV-12 (IC50 class); for inhibitory activity on SHV-12 compared to control drugs: comparison in words
T1 sequence (P0AD64 1-286 L31Q/G234S/E235K): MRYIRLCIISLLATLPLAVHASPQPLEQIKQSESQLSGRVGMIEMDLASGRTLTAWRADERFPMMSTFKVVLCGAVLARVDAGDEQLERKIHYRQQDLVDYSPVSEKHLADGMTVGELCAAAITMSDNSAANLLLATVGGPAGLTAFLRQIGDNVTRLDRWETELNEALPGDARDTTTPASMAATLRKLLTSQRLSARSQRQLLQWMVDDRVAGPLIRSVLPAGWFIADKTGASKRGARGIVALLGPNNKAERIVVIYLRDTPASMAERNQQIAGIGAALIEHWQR

KPC-2 = KPC-2 (Klebsiella pneumoniae, UniProt Q9F663); test: as above; details: for IC50: read-out: Inhibitory activity on SBL KPC-2 (IC50 class)
Sequence of KPC-2 (Q9F663 25-293 limits assumed): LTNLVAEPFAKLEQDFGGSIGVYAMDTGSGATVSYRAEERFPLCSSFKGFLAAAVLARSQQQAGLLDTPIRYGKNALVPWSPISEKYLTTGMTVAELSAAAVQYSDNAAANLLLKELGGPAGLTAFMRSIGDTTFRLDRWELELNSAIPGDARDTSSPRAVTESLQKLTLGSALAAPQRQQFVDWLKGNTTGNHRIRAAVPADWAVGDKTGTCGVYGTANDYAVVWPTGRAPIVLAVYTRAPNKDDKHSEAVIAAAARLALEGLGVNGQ

CTX-M-14 = CTX-M-14 (Escherichia coli, UniProt Q9L5C7); test: as above; details: for IC50: read-out: Inhibitory activity on SBL CTX-M-14 (IC50 class)
Sequence of CTX-M-14 (Q9L5C7 entry or part of it): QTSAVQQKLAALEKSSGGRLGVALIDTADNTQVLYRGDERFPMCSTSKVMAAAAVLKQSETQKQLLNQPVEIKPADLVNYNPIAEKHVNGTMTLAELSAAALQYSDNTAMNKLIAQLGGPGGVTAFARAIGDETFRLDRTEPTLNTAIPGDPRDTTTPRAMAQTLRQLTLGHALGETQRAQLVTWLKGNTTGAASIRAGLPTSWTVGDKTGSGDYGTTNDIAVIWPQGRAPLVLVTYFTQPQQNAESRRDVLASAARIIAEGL

VIM-2 = VIM-2 (Escherichia coli, UniProt Q5U7L7); test: Inhibitory activity on MBL, fluorescent substrate FC-5; details: read-out: Inhibitory activity on MBL VIM-2 (IC50 class)
[1] = read-out: Inhibitory activity on MBL NDM-1 (IC50 class)
[2] = read-out: inhibitory activity at a nanomolar-level on NDM-1
[3] = read-out: Inhibitory activity on MBL NDM-5 (IC50 class)
[4] = read-out: inhibitory activity at a nanomolar-level on NDM-5
[5] = VIM-1 and/or VIM-2, read-out: inhibitory activity at a nanomolar-level on VIM-1 and/or VIM-2
[6] = read-out: Inhibitory activity on MBL VIM-1 (IC50 class)
[7] = read-out: Inhibitory activity on MBL IMP-1 (IC50 class)

Sequence of OXA-48 (Q6XEC0 23-265 limits assumed): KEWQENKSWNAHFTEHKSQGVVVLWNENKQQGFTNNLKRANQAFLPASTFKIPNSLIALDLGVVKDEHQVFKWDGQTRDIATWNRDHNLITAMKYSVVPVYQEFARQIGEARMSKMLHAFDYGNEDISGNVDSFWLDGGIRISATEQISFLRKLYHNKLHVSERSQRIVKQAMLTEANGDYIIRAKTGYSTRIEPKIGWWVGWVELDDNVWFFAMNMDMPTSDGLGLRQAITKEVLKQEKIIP

Compound | IC50 (OXA-48) [µM] | IC50 (NDM-1; [1]) [µM] | IC50 (NDM-1; [2]) [µM] | IC50 (TEM-1) [µM] | IC50 (NDM-5; [3]) [µM] | IC50 (NDM-5; [4]) [µM] | IC50 (VIM-1; [5]) [µM] | IC50 (VIM-1; [6]) [µM] | IC50 (IMP-1; [7]) [µM] | IC50 (SHV-12) [µM] | IC50 (KPC-2) [µM] | IC50 (CTX-M-14) [µM] | IC50 (VIM-2) [µM] | inhibitory activity on OXA-48 compared to avibactam (OXA-48; comparison in words) | inhibitory activity on TEM-1 compared to avibactam (TEM-1; comparison in words) | inhibitory activity on KPC-2 compared to avibactam (KPC-2; comparison in words) | inhibitory activity on CTX-M-14 compared to avibactam (CTX-M-14; comparison in words) | inhibitory activity on SHV-12 compared to control drugs (SHV-12) | IC50 (IMP-1; IMP-1 and/or IMP-4, read-out: inhibitory activity at a nanomolar-level on IMP-1 and/or IMP-4) [µM]
O=C(O)c1c(Cn2nccn2)ccc2c1OB(O)CC2 [Compound 1] | < 0.01 | 0.01 to 1 | < 1 | 0.01 to 1 | 0.01 to 1 | < 1 | < 1 | 1 to 100 | 1 to 100 | 0.01 to 1 | < 0.01 | 0.01 to 1 | 0.01 to 1 | – | – | – | – | – | –
NCCNCc1cnn(Cc2ccc3c(c2C(=O)O)OB(O)CC3)c1 [Compound 35] | < 0.01 | 1 to 100 | – | < 0.01 | 0.01 to 1 | – | – | 1 to 100 | 1 to 100 | 0.01 to 1 | 0.01 to 1 | 0.01 to 1 | 0.01 to 1 | – | – | – | – | – | –
N#CCCCc1cn(Cc2ccc3c(c2C(=O)O)OB(O)CC3)nn1 [Compound 6] | 0.01 to 1 | 1 to 100 | – | 0.01 to 1 | 0.01 to 1 | – | < 1 | 1 to 100 | 1 to 100 | 0.01 to 1 | < 0.01 | 0.01 to 1 | 0.01 to 1 | – | – | – | – | – | –
O=C(O)c1c(Cn2cc(F)cn2)ccc2c1OB(O)CC2 [Compound 15] | 0.01 to 1 | 0.01 to 1 | < 1 | 0.01 to 1 | 0.01 to 1 | < 1 | < 1 | 1 to 100 | 1 to 100 | 0.01 to 1 | < 0.01 | 0.01 to 1 | 0.01 to 1 | – | – | – | – | – | –
NS(=O)(=O)NCCc1cn(Cc2ccc3c(c2C(=O)O)OB(O)CC3)nn1 [Compound 51] | < 0.01 | 0.01 to 1 | < 1 | 0.01 to 1 | 0.01 to 1 | < 1 | – | 1 to 100 | 1 to 100 | 0.01 to 1 | < 0.01 | 0.01 to 1 | 0.01 to 1 | – | – | – | – | – | –
NC(=O)c1cnn(Cc2ccc3c(c2C(=O)O)OB(O)CC3)c1 [Compound 19] | < 0.01 | 0.01 to 1 | < 1 | < 0.01 | 0.01 to 1 | < 1 | < 1 | 0.01 to 1 | 1 to 100 | 0.01 to 1 | < 0.01 | 0.01 to 1 | 0.01 to 1 | better or comparable | better or comparable | better or comparable | better or comparable | – | –
O=C(O)c1c(Cn2cc3c(n2)CNC3)ccc2c1OB(O)[C@@H]1C[C@H]21 [Compound 53] | < 0.01 | 0.01 to 1 | < 1 | 0.01 to 1 | 0.01 to 1 | < 1 | – | 1 to 100 | 1 to 100 | 0.01 to 1 | < 0.01 | 0.01 to 1 | 0.01 to 1 | – | – | – | – | – | –
NC1CN(C(=O)c2cnn(Cc3ccc4c(c3C(=O)O)OB(O)CC4)c2)C1 [Compound 72] | 0.01 to 1 | 0.01 to 1 | < 1 | < 0.01 | 0.01 to 1 | < 1 | < 1 | 0.01 to 1 | 0.01 to 1 | < 0.01 | < 0.01 | 0.01 to 1 | 0.01 to 1 | – | – | – | – | comparable to avibactam and tazobactam and superior to taniborbactam | –
N#Cc1cccn1Cc1ccc2c(c1C(=O)O)OB(O)CC2 [Compound 25] | 0.01 to 1 | 1 to 100 | – | 0.01 to 1 | 1 to 100 | – | – | 1 to 100 | 1 to 100 | 0.01 to 1 | < 0.01 | 0.01 to 1 | 1 to 100 | – | – | – | – | – | –
O=C(O)c1c(Cn2cccn2)ccc2c1OB(O)CC2 [Compound 14] | < 0.01 | 0.01 to 1 | < 1 | 0.01 to 1 | 0.01 to 1 | < 1 | < 1 | 1 to 100 | 1 to 100 | 0.01 to 1 | < 0.01 | < 0.01 | 0.01 to 1 | – | – | – | – | – | –
CCCc1cn(Cc2ccc3c(c2C(=O)O)OB(O)CC3)nn1 [Compound 4] | 0.01 to 1 | 0.01 to 1 | < 1 | 0.01 to 1 | 0.01 to 1 | < 1 | – | 1 to 100 | 0.01 to 1 | 0.01 to 1 | < 0.01 | 0.01 to 1 | 1 to 100 | – | – | – | – | – | < 1
O=C(O)c1c(Cn2cc(C(F)(F)F)cn2)ccc2c1OB(O)CC2 [Compound 16] | < 0.01 | 0.01 to 1 | < 1 | 0.01 to 1 | 0.01 to 1 | < 1 | < 1 | 1 to 100 | 1 to 100 | 0.01 to 1 | < 0.01 | < 0.01 | 0.01 to 1 | – | – | – | – | – | –
C[n+]1ccn(Cc2ccc3c(c2C(=O)O)OB(O)CC3)n1 [Compound 3] | 0.01 to 1 | 0.01 to 1 | < 1 | 0.01 to 1 | 0.01 to 1 | < 1 | < 1 | 1 to 100 | 1 to 100 | 0.01 to 1 | < 0.01 | 0.01 to 1 | 0.01 to 1 | – | – | – | – | – | –
Cc1nccn1Cc1ccc2c(c1C(=O)O)OB(O)CC2 [Compound 24] | < 0.01 | 1 to 100 | – | 0.01 to 1 | 1 to 100 | – | < 1 | 1 to 100 | 1 to 100 | 0.01 to 1 | < 0.01 | 0.01 to 1 | 0.01 to 1 | – | – | – | – | – | –
NS(=O)(=O)N1Cc2cn(Cc3ccc4c(c3C(=O)O)OB(O)CC4)nc2C1 [Compound 57] | < 0.01 | 0.01 to 1 | < 1 | < 0.01 | 0.01 to 1 | < 1 | < 1 | 0.01 to 1 | 1 to 100 | 0.01 to 1 | < 0.01 | < 0.01 | 0.01 to 1 | – | – | – | – | – | –
O=C(O)c1c(Cn2ccnc2)ccc2c1OB(O)CC2 [Compound 23] | < 0.01 | 0.01 to 1 | < 1 | 0.01 to 1 | 0.01 to 1 | < 1 | < 1 | 1 to 100 | 1 to 100 | 0.01 to 1 | < 0.01 | 0.01 to 1 | 0.01 to 1 | – | – | – | – | – | –
NC(=O)c1ccn(Cc2ccc3c(c2C(=O)O)OB(O)CC3)n1 [Compound 20] | < 0.01 | 0.01 to 1 | < 1 | < 0.01 | 0.01 to 1 | < 1 | < 1 | 0.01 to 1 | 1 to 100 | 0.01 to 1 | < 0.01 | 0.01 to 1 | 0.01 to 1 | – | – | – | – | – | –
N#Cc1ccn(Cc2ccc3c(c2C(=O)O)OB(O)CC3)c1 [Compound 71] | 0.01 to 1 | 0.01 to 1 | < 1 | < 0.01 | 0.01 to 1 | < 1 | < 1 | 0.01 to 1 | 0.01 to 1 | < 0.01 | < 0.01 | 0.01 to 1 | 0.01 to 1 | – | – | – | – | comparable to avibactam and tazobactam and superior to taniborbactam | –
